From ChEMBL document CHEMBL1137913, “Piperidine-containing beta-arylpropionic acids as potent antagonists of alphavbeta3/alphavbeta5 integrins” (Bioorg Med Chem Lett, 2004)

Experiments:
[1] = Inhibition of human Biotinylated Fg binding to immobilized Alpha II biotinylated Fg beta-5
[2] = target: T1, Integrin alpha-IIb/beta-3 (Homo sapiens, UniProt P05106+P08514); assay: Inhibition of human Biotinylated Fg binding to immobilized Alpha II beta-3; type: protein-complex assay
Integrin alpha-V/beta-3 = Integrin alpha-V/beta-3 (Homo sapiens, UniProt P05106+P06756); assay: Inhibition of human vitronectin binding to immobilized Alpha v beta-3; type: protein-complex assay
[3] = Half life was determined after peroral administration at 10 mg/kg; type: ADME, organism-based; set-up: dose 10 mg/kg, route oral; conditions: rat, in vivo, po
[4] = Oral bioavailability (dose in 5% dextrose in water at pH 2); type: ADME, organism-based; conditions: rat, in vivo
[5] = AUC was determined after peroral administration at 10 mg/kg; type: ADME, organism-based; set-up: dose 10 mg/kg, route oral; conditions: rat, plasma, po
[6] = Clearance was determined after intravenous administration at 2 mg/kg; type: ADME, organism-based; set-up: dose 2 mg/kg, route intravenous; conditions: rat, in vivo
[7] = target: T1, Integrin alpha-IIb/beta-3; assay: Inhibition of human Biotinylated Fg binding to immobilized Alpha IIb beta-3 (N=1); type: protein-complex assay

Integrin alpha-V/beta-3, sequence (P05106 27-788 limits assumed): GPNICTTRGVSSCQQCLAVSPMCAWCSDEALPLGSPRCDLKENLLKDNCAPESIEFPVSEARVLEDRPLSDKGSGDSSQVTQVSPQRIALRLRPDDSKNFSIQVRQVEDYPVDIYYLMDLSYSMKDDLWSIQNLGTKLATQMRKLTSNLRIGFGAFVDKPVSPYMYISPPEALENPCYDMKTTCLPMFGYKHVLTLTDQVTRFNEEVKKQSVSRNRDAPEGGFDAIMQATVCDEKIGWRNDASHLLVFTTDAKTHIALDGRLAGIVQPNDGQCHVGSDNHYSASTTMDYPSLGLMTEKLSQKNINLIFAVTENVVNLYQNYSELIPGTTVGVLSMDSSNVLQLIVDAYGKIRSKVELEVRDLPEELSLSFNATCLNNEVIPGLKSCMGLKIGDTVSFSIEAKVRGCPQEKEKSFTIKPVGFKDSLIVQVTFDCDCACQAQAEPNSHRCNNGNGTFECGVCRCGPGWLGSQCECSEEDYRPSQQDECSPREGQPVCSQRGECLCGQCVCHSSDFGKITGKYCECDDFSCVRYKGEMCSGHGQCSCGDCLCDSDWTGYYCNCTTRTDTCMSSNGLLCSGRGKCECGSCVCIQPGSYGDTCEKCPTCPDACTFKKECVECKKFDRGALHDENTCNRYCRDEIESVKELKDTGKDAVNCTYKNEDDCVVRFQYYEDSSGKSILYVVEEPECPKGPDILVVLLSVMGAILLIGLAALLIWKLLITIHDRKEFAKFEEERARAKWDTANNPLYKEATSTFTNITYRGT
Integrin alpha-V/beta-3, sequence (P06756 31-889 limits assumed): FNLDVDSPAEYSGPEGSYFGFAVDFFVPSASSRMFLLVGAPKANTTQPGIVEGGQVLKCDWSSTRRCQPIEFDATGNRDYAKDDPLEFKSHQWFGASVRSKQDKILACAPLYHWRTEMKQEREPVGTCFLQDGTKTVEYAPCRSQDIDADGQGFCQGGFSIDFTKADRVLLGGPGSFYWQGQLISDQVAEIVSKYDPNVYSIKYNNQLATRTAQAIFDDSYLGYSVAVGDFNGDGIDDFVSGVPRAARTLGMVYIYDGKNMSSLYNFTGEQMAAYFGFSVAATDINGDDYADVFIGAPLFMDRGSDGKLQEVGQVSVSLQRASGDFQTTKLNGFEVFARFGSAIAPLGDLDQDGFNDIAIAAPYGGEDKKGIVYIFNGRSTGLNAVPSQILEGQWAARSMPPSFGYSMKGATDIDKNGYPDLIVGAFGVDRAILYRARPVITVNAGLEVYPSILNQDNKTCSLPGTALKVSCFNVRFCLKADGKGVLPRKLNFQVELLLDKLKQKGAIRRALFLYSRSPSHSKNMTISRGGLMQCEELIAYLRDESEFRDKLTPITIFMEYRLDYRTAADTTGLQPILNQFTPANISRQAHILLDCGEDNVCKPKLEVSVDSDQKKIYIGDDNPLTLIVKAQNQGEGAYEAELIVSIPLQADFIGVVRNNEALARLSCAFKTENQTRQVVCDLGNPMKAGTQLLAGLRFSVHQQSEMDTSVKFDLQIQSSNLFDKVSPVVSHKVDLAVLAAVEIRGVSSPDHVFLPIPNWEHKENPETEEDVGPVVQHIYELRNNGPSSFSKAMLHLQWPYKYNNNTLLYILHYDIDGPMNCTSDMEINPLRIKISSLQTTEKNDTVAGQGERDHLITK
Integrin alpha-V/beta-3, sequence (P06756 891-1048 limits assumed): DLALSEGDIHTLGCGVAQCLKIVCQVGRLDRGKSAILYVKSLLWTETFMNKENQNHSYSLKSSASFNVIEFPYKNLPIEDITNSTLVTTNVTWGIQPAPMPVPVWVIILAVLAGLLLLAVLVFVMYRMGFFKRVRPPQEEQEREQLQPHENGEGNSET
T1 sequence (P05106 27-788 limits assumed): as the sequence (P05106 27-788 limits assumed) above
T1 sequence (P08514 32-887 limits assumed): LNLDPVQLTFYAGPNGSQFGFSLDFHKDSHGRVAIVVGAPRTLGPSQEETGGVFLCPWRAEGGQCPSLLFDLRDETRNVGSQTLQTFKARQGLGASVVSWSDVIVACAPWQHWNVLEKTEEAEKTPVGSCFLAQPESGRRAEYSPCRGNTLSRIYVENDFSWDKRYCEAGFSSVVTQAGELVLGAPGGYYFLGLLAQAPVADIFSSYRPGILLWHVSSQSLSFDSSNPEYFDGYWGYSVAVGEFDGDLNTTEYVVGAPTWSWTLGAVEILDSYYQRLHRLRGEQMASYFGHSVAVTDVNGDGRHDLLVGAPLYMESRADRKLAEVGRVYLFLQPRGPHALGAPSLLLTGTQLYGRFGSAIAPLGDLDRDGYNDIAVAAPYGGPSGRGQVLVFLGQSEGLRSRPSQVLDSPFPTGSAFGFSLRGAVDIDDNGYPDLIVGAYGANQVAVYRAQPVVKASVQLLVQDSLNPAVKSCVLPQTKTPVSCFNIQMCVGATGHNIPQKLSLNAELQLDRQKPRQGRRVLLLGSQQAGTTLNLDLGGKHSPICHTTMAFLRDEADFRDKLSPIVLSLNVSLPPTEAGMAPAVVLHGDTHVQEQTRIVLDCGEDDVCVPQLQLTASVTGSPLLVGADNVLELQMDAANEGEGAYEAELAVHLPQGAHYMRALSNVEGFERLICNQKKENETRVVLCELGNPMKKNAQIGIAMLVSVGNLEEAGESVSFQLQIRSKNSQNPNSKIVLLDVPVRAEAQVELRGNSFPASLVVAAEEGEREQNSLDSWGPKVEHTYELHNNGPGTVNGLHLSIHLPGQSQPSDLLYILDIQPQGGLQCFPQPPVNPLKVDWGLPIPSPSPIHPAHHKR
T1 sequence (P08514 891-1039 limits assumed): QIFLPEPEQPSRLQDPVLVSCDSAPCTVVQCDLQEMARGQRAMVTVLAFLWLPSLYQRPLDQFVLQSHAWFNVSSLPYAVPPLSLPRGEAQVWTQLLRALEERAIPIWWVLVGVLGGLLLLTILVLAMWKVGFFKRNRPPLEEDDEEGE

| IC50 [1] [nM] | IC50 [2] [nM] | IC50 (Integrin alpha-V/beta-3) [nM] | half-life [3] [h] | bioavailability [4] [%] | AUC [5] [µM·h] | CI [6] [mg/kg/µM/h] | IC50 [7] [nM] | Compound |
| --- | --- | --- | --- | --- | --- | --- | --- | --- |
| 405 | > 10000 | 75 | – | – | – | – | – | O=C(O)CC(CCC1CCN(C(=O)Cc2ccc3c(n2)NCCC3)CC1)c1ccc2c(c1)OCO2 (stereo unspecified) |
| – | 15700 | 21.7 | 6.7 | 2.4 | 79 | 0.09 | – | O=C(O)CC(NC(=O)C1CCN(C(=O)CCc2ccc3c(n2)NCCC3)CC1)c1ccc2c(c1)OCO2 (stereo unspecified) |
| 95.7 | 6190 | 28.1 | – | – | – | – | – | O=C(O)CC(c1ccc2c(c1)OCO2)C1CCN(C(=O)CCc2ccc3c(n2)NCCC3)CC1 (stereo unspecified) |
| 33.5 | – | – | – | – | – | – | – | O=C(O)CC(c1ccc2c(c1)OCO2)C1CCN(C(=O)CCCc2ccc3c(n2)NCCC3)CC1 (stereo unspecified) |
| – | 56.4 | 25.3 | – | – | – | – | – | N/C(=N\Cc1ccncc1)Nc1cccc(C(=O)N2CCC(C(=O)NC(CC(=O)O)c3ccc4c(c3)OCO4)CC2)c1 (stereo unspecified) |
| – | 1580 | 1.7 | 5.4 | 2.6 | 21.2 | 0.04 | – | O=C(O)CC(CCC1CCN(C(=O)c2cccc(NC3=NCC(O)CN3)c2)CC1)c1ccc2c(c1)OCO2 (stereo unspecified) |
| – | 2850 | 2.6 | – | – | – | – | – | O=C(O)CC(NC(=O)C1CCN(C(=O)CCc2ccc3c(n2)NCCC3)CC1)c1cnc2ccccc2c1 (stereo unspecified) |
| – | 177 | 5.5 | – | – | – | – | – | O=C(O)CC(NC(=O)C1CCN(C(=O)c2cccc(NC3=CCC(O)CN3)c2)CC1)c1cnc2ccccc2c1 (stereo unspecified) |
| – | – | – | 2.6 | 4 | < 0.1 | 10.4 | – | Cc1ncc(C(CC(=O)O)CC2CCN(C(=O)CCc3ccc4c(n3)NCCC4)CC2)cn1 (stereo unspecified) |
| 220 | 4260 | 20.6 | – | – | – | – | – | O=C(O)CC(CC1CCN(C(=O)CCCc2ccc3c(n2)NCCC3)CC1)c1ccc2c(c1)OCO2 (stereo unspecified) |
| 1.7 | – | – | – | 0 | – | 1.1 | – | O=C(O)CC(CC1CCN(C(=O)CCc2ccc3c(n2)NCCC3)CC1)c1cccnc1 (stereo unspecified) |
| 4.6 | – | 1.5 | – | 1 | 0.1 | 1 | – | COc1ncc(C(CC(=O)O)CC2CCN(C(=O)CCc3ccc4c(n3)NCCC4)CC2)c(OC)n1 (stereo unspecified) |
| – | 10900 | 233 | 6.6 | 96 | 142 | 0.2 | – | O=C(O)CC(CCC1CCN(C(=O)CCCNc2ccccn2)CC1)c1ccc2c(c1)OCO2 (stereo unspecified) |
| – | 4360 | – | 3 | 88 | 304 | 0.09 | – | O=C(O)CC(CCC1CCN(C(=O)CCc2ccc3c(n2)NCCC3)CC1)c1ccc2c(c1)OCO2 (stereo unspecified) |
| – | 79.3 | 2.8 | – | – | – | – | – | O=C(O)CC(NC(=O)C1CCN(C(=O)CCCNC2=NCCN2)CC1)c1cnc2ccccc2c1 (stereo unspecified) |
| 2.3 | – | – | 2.1 | 31 | 97 | 0.1 | – | O=C(O)CC(CC1CCN(C(=O)CCc2ccc3c(n2)NCCC3)CC1)c1ccc2c(c1)OCO2 (stereo unspecified) |
| 24.5 | > 10000 | – | 5.65 | 47 | 286 | 0.02 | – | O=C(O)CC(CC1CCN(C(=O)CCc2ccc3c(n2)NCCC3)CC1)c1ccc2ccccc2c1 (stereo unspecified) |
| 2.8 | > 10000 | – | 1.7 | 14 | 2.7 | 0.5 | – | O=C(O)CC(CC1CCN(C(=O)CCc2ccc3c(n2)NCCC3)CC1)c1cccc(F)c1 (stereo unspecified) |
| – | 209 | 10.4 | – | – | – | – | – | O=C(O)CC(NC(=O)C1CCN(C(=O)c2cccc(NC3=CCCCN3)c2)CC1)c1ccc2c(c1)OCO2 (stereo unspecified) |
| 775 | – | – | – | – | – | – | > 10000 | O=C(O)CC(c1ccc2c(c1)OCO2)C1CCN(C(=O)Cc2ccc3c(n2)NCCC3)CC1 (stereo unspecified) |
| – | 0.15 | > 50000 | – | – | – | – | – | O=C(O)C[C@H](NC(=O)[C@@H]1CCCN(C(=O)CCC2CCNCC2)C1)c1cccnc1 [ELAROFIBAN] |
